This is an account of results in PMC11705230, “Discovery and Synthetic Applications of a NAD(P)H-Dependent Reductive Aminase from Rhodococcus erythropolis” (ACS Catalysis, 2024).

The target in this assay is T1, RytRedAm (Rhodococcus erythropolis, UniProt Z9GXG8TLZ1).
T1 construct: recombinant, N-terminal His-tag in pET-28a(+), E. coli BL21(DE3); Ni-NTA purified; homodimer; printed residues R35, I69, T90, D166, Y235
T1 sequence (Z9GXG8TLZ1 1-291): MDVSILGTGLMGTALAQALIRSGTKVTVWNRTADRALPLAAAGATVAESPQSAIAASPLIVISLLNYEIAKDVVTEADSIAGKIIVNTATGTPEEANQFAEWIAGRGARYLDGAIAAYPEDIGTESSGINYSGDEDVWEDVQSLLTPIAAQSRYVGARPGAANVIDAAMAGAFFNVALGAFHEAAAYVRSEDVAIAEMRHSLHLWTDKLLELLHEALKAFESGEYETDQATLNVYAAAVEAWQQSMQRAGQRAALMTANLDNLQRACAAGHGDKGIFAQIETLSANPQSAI
Nature of the assay: X-ray crystallography. It is filed as binding. The settings on record: cocrystallized with NADP+, nicotinamide ring and ribose density absent; cofactor site; pH 7.0.

Consider `Nc1ncnc2c1ncn2[C@@H]1O[C@H](COP(=O)(O)OP(=O)(O)O)[C@@H](O)[C@H]1OP(=O)(O)O` [ADP-2RP], for which the X-ray crystallography result is recorded as “crystals obtained with the latter gave an ADP-2′-ribose phosphate (ADP-2RP) complex”.
